Measured values: the supplement of paper PMC10307832

Compound: COc1cc2nc(N3CCCN(C)CC3)nc(NC3CCN(Cc4ccccc4)CC3)c2cc1OC + O=C(CCCCCCC(=O)Nc1ccccc1)NO [Vorinostat] (partner 1 µM)
Experiment: relative viability (nuclei count vs DMSO), 5 days (fraction); higher = more cells survive
Conditions: first compound 6.325 µM
Outline: (§1)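 Lung cancer cell lines were seeded in 1536-well plates and dosed by pin tool the next day, with either a single drug or a fixed anchor-drug dose combined with five library-drug doses (not always all listed) spaced in √10 steps. Five days later, one step fixed the cells and stained their nuclei (final 0.05% Triton X-100, 1% formaldehyde, 1 ug/ml Hoechst), and nuclei were counted on 4× images. Relative viability is the nuclei count in treated wells divided by the count in vehicle wells, and each value is the median of duplicate plates.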

First: LC-2-ad
Second: NCI-H1944
The relative viability of the first is higher: 0.693 for the first, 0.517 for the second.

Going from NCI-H1975 to RERF-LC-KJ, the relative viability falls from 0.654 to 0.589.

First: ABC-1
Second: NCI-H358
The relative viability of the first is higher: 0.917 for the first, 0.462 for the second.

Compared with NCI-H650, PC-3 [JPC-3] is higher in relative viability: 0.321 for the first, 0.707 for the second.

Compound: COc1cc2nc(N3CCCN(C)CC3)nc(NC3CCN(Cc4ccccc4)CC3)c2cc1OC + Cc1nc(Nc2ncc(C(=O)Nc3c(C)cccc3Cl)s2)cc(N2CCN(CCO)CC2)n1 [Dasatinib] (partner 0.075 µM)
Experiment: as above
Conditions: first compound 0.2 µM
Outline: as §1

Going from NCI-H441 to NCI-H661, the relative viability rises from 0.602 to 0.957.

Compared with NCI-H1734, NCI-H460 is higher in relative viability: 0.524 for the first, 0.532 for the second.

Compared with NCI-H2347, SK-LU-1 is lower in relative viability: 0.36 for the first, 0.21 for the second.

First: NCI-H1395
Second: 201T
The relative viability of the first is lower: 0.459 for the first, 0.573 for the second.

Compared with NCI-H1915, HCC-827 is higher in relative viability: 0.35 for the first, 0.398 for the second.

Compared with LXF-289, NCI-H23 is higher in relative viability: 0.263 for the first, 0.786 for the second.

Going from NCI-H647 to CAL-12T, the relative viability rises from 0.201 to 0.37.

First: NCI-H1651
Second: EPLC-272H
The relative viability of the first is lower: 0.383 for the first, 0.384 for the second.

Going from NCI-H2228 to NCI-H1355, the relative viability rises from 0.514 to 0.761.

Going from NCI-H3122 to NCI-H1437, the relative viability falls from 0.969 to 0.48.

Compared with NCI-H1755, NCI-H2023 is higher in relative viability: 0.436 for the first, 0.57 for the second.

Going from HCC-15 to NCI-H1793, the relative viability falls from 0.632 to 0.378.

First: PC-14
Second: EKVX
The relative viability of the first is lower: 0.236 for the first, 0.571 for the second.

First: LC-2-ad
Second: NCI-H1944
The relative viability of the first is higher: 0.493 for the first, 0.199 for the second.

Going from NCI-H1975 to RERF-LC-KJ, the relative viability rises from 0.342 to 0.805.

Going from ABC-1 to NCI-H358, the relative viability falls from 0.531 to 0.163.

First: NCI-H650
Second: PC-3 [JPC-3]
The relative viability of the first is lower: 0.48 for the first, 0.954 for the second.

Same assay, conditions: first compound 0.6325 µM

Going from NCI-H441 to NCI-H661, the relative viability rises from 0.616 to 0.955.

Compared with NCI-H1734, NCI-H460 is higher in relative viability: 0.37 for the first, 0.534 for the second.

Compared with NCI-H2347, SK-LU-1 is lower in relative viability: 0.339 for the first, 0.159 for the second.

First: NCI-H1395
Second: 201T
The relative viability of the first is lower: 0.425 for the first, 0.495 for the second.

Going from NCI-H1915 to HCC-827, the relative viability falls from 0.355 to 0.237.

First: LXF-289
Second: NCI-H23
The relative viability of the first is lower: 0.212 for the first, 0.628 for the second.

Going from NCI-H647 to CAL-12T, the relative viability rises from 0.233 to 0.325.

Going from NCI-H1651 to EPLC-272H, the relative viability falls from 0.523 to 0.411.

Going from NCI-H2228 to NCI-H1355, the relative viability rises from 0.488 to 0.777.

Going from NCI-H3122 to NCI-H1437, the relative viability falls from 0.763 to 0.454.

Going from NCI-H1755 to NCI-H2023, the relative viability rises from 0.395 to 0.558.

First: HCC-15
Second: NCI-H1793
The relative viability of the first is higher: 0.706 for the first, 0.412 for the second.

First: PC-14
Second: EKVX
The relative viability of the first is lower: 0.277 for the first, 0.52 for the second.

Compared with LC-2-ad, NCI-H1944 is lower in relative viability: 0.618 for the first, 0.245 for the second.

First: NCI-H1975
Second: RERF-LC-KJ
The relative viability of the first is lower: 0.438 for the first, 0.812 for the second.

Going from ABC-1 to NCI-H358, the relative viability falls from 0.525 to 0.205.

First: NCI-H650
Second: PC-3 [JPC-3]
The relative viability of the first is lower: 0.472 for the first, 0.908 for the second.

Same assay, conditions: first compound 2 µM

Compared with NCI-H441, NCI-H661 is higher in relative viability: 0.532 for the first, 0.966 for the second.

Compared with NCI-H1734, NCI-H460 is lower in relative viability: 0.46 for the first, 0.415 for the second.

Going from NCI-H2347 to SK-LU-1, the relative viability falls from 0.304 to 0.206.

Compared with NCI-H1395, 201T is higher in relative viability: 0.384 for the first, 0.549 for the second.

Going from NCI-H1915 to HCC-827, the relative viability falls from 0.338 to 0.258.

Compared with LXF-289, NCI-H23 is higher in relative viability: 0.252 for the first, 0.859 for the second.

Compared with NCI-H647, CAL-12T is higher in relative viability: 0.192 for the first, 0.54 for the second.

Going from NCI-H1651 to EPLC-272H, the relative viability falls from 0.47 to 0.453.

Compared with NCI-H2228, NCI-H1355 is higher in relative viability: 0.496 for the first, 0.787 for the second.

Going from NCI-H3122 to NCI-H1437, the relative viability falls from 0.894 to 0.492.

Compared with NCI-H1755, NCI-H2023 is higher in relative viability: 0.416 for the first, 0.56 for the second.

Going from HCC-15 to NCI-H1793, the relative viability falls from 0.654 to 0.375.

Going from PC-14 to EKVX, the relative viability rises from 0.197 to 0.474.

Compared with LC-2-ad, NCI-H1944 is lower in relative viability: 0.804 for the first, 0.204 for the second.

Compared with NCI-H1975, RERF-LC-KJ is higher in relative viability: 0.464 for the first, 1.01 for the second.

Compared with ABC-1, NCI-H358 is lower in relative viability: 0.568 for the first, 0.146 for the second.

First: NCI-H650
Second: PC-3 [JPC-3]
The relative viability of the first is lower: 0.441 for the first, 1.08 for the second.

Same assay, conditions: first compound 6.325 µM

First: NCI-H441
Second: NCI-H661
The relative viability of the first is lower: 0.599 for the first, 0.83 for the second.

First: NCI-H1734
Second: NCI-H460
The relative viability of the first is lower: 0.416 for the first, 0.43 for the second.

Going from NCI-H2347 to SK-LU-1, the relative viability falls from 0.274 to 0.119.

Going from NCI-H1395 to 201T, the relative viability rises from 0.357 to 0.557.

First: NCI-H1915
Second: HCC-827
The relative viability of the first is lower: 0.349 for the first, 0.379 for the second.

Going from LXF-289 to NCI-H23, the relative viability rises from 0.213 to 0.876.

Going from NCI-H647 to CAL-12T, the relative viability rises from 0.149 to 0.294.

First: NCI-H1651
Second: EPLC-272H
The relative viability of the first is higher: 0.413 for the first, 0.37 for the second.

First: NCI-H2228
Second: NCI-H1355
The relative viability of the first is lower: 0.243 for the first, 0.783 for the second.

Going from NCI-H3122 to NCI-H1437, the relative viability falls from 0.765 to 0.384.

Going from NCI-H1755 to NCI-H2023, the relative viability falls from 0.423 to 0.237.

Compared with HCC-15, NCI-H1793 is lower in relative viability: 0.44 for the first, 0.375 for the second.

Going from PC-14 to EKVX, the relative viability rises from 0.0162 to 0.526.

Compared with LC-2-ad, NCI-H1944 is lower in relative viability: 0.65 for the first, 0.232 for the second.

Compared with NCI-H1975, RERF-LC-KJ is higher in relative viability: 0.287 for the first, 0.567 for the second.

Compared with ABC-1, NCI-H358 is lower in relative viability: 0.581 for the first, 0.171 for the second.

First: NCI-H650
Second: PC-3 [JPC-3]
The relative viability of the first is lower: 0.38 for the first, 1 for the second.
